Results taken from patent publication US8962596B2 (Array BioPharma Inc., priority 2010, dated 2015).

Experiments:
Assay type in all cases: biochemical
[1] = biological target: T1, Human Tyk2 kinase domain (Homo sapiens, UniProt P29597); assay: Tyk2 Inhibition Assay (Omnia kinase fluorescence peptide substrate assay); conditions: averaged IC50 ranges; assay of Example A; 10 μM (Km app) or 1 mM ATP, 2 nM Tyk2
T1 construct: comprising amino acids 886 to 1187 with 10 additional histidine residues; 10xHis (histidine tag) (C, cleaved yes); made in house
T1 sequence (P29597 886-1187): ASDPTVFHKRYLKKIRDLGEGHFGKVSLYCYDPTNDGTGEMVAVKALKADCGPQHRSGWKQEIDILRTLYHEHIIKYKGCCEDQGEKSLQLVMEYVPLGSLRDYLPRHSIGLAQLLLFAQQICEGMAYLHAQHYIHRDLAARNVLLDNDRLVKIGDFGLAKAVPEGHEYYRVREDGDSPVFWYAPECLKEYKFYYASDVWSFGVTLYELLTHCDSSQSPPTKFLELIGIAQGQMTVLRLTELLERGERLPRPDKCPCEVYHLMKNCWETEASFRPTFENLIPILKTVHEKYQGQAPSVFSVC
Summary of the method: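 2 nM His-tag-cleaved kinase domain (aa 886–1187) with 8 μM Omnia Y12 peptide, 10 μM (Km app) or 1 mM ATP, pH 7.4 HEPES/10 mM MgCl2, 2% DMSO. Fluorescence (ex 360/em 485 nm) every 50 s for 45 min; IC50 from 4-parameter fit of POC, top dose 10 μM.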

[2] = biological target: T2, JAK1 (Homo sapiens, UniProt P23458); assay: JAK1 Inhibition Assay (Omnia kinase fluorescence peptide substrate assay); conditions: averaged IC50 ranges; assay of Example B; 40 μM (Km app) or 1 mM ATP, 15 nM JAK1
T2 construct: purchased Invitrogen Corporation, Carlsbad, Calif; PV4775

[3] = biological target: T3, JAK2 (Homo sapiens, UniProt O60674); assay: JAK2 Inhibition Assay (Omnia kinase fluorescence peptide substrate assay); conditions: averaged IC50 ranges; assay of Example C; 25 μM (Km app) or 1 mM ATP, 5 nM JAK2
T3 construct: purchased Invitrogen Corporation, Carlsbad, Calif; PV4288
Summary of the method: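 5 nM JAK2 phosphorylated 10 μM Omnia Y7 peptide with ATP at 25 μM (Km app) or 1 mM, in 25 mM HEPES pH 7.4, 10 mM MgCl2, 0.01% Triton X-100, 1 mM DTT, 2% DMSO. Fluorescence (360/485 nm) was read every 50 s for 45 min. 10-point 3-fold series from 10 μM; POC versus uninhibited and background controls, 4-parameter logistic IC50.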

[4] = biological target: T4, JAK3 (Homo sapiens, UniProt P52333); assay: JAK3 Inhibition Assay (Omnia kinase fluorescence peptide substrate assay); conditions: averaged IC50 ranges; assay of Example D; 10 μM (Km app) or 1 mM ATP, 2.5 nM JAK3
T4 construct: purchased Invitrogen Corporation, Carlsbad, Calif; PV4080
T4 sequence (P52333 1-1124): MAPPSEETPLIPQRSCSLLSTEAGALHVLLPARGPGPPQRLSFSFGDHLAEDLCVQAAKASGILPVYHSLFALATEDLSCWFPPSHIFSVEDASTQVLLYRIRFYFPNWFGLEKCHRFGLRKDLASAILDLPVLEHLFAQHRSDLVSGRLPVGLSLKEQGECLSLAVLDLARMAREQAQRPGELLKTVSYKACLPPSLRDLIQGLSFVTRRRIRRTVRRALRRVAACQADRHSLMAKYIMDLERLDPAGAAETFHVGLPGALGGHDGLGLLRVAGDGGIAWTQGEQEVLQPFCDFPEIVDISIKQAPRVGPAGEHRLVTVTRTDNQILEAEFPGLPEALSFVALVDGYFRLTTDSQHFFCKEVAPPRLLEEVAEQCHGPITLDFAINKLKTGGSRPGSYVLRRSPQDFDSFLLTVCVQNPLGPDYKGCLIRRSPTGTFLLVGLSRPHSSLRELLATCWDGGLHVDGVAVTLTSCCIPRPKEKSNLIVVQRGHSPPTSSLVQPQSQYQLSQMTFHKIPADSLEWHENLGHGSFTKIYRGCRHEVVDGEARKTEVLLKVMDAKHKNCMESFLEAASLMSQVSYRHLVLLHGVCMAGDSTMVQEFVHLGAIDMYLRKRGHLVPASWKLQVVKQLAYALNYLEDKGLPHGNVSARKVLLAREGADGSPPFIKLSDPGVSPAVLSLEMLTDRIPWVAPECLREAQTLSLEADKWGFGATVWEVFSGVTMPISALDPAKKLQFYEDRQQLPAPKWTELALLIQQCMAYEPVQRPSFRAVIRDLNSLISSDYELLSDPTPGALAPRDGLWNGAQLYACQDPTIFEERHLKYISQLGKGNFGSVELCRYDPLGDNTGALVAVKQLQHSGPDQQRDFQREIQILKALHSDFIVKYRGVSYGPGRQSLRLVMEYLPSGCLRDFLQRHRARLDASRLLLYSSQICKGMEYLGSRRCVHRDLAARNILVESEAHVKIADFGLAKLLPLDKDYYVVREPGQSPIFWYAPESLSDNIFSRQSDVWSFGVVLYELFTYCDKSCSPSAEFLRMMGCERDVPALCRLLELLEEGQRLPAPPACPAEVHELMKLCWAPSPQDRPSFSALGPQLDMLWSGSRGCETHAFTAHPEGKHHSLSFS
Summary of the method: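 Kinase at 2.5 nM with 10 µM Omnia Y7 peptide and 10 µM (Km app) or 1 mM ATP in 25 mM HEPES pH 7.4, 10 mM MgCl2, 1 mM DTT, 0.01% Triton X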

T2 sequence (P23458 whole entry): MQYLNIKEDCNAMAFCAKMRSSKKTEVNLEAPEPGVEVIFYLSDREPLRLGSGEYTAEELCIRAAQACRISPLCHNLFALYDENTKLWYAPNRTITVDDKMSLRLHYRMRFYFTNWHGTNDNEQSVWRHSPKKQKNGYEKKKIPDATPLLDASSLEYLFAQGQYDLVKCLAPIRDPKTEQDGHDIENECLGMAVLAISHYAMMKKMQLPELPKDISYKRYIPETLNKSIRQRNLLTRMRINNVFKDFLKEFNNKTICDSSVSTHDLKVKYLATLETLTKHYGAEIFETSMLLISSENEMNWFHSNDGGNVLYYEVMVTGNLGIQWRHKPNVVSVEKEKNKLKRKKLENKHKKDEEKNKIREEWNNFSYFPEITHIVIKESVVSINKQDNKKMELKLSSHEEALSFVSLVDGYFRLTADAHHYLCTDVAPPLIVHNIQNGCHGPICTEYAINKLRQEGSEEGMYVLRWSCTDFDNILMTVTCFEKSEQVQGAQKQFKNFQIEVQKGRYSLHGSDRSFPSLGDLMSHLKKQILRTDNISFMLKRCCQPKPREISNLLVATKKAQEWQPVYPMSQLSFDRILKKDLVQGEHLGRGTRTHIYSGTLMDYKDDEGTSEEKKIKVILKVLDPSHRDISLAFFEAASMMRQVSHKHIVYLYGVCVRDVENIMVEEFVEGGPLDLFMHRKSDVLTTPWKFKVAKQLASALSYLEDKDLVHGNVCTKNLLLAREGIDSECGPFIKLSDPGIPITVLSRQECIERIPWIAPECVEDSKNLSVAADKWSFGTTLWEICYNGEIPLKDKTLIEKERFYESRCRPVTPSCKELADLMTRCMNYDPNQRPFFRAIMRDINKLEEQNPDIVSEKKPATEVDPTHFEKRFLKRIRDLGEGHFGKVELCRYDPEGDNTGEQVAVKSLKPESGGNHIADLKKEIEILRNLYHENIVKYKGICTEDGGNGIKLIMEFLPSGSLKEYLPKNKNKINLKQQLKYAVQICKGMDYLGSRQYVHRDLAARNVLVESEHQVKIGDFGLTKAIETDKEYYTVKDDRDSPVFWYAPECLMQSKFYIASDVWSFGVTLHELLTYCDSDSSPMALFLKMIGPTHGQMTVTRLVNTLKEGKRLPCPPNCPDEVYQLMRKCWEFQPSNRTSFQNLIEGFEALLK
T3 sequence (O60674 whole entry): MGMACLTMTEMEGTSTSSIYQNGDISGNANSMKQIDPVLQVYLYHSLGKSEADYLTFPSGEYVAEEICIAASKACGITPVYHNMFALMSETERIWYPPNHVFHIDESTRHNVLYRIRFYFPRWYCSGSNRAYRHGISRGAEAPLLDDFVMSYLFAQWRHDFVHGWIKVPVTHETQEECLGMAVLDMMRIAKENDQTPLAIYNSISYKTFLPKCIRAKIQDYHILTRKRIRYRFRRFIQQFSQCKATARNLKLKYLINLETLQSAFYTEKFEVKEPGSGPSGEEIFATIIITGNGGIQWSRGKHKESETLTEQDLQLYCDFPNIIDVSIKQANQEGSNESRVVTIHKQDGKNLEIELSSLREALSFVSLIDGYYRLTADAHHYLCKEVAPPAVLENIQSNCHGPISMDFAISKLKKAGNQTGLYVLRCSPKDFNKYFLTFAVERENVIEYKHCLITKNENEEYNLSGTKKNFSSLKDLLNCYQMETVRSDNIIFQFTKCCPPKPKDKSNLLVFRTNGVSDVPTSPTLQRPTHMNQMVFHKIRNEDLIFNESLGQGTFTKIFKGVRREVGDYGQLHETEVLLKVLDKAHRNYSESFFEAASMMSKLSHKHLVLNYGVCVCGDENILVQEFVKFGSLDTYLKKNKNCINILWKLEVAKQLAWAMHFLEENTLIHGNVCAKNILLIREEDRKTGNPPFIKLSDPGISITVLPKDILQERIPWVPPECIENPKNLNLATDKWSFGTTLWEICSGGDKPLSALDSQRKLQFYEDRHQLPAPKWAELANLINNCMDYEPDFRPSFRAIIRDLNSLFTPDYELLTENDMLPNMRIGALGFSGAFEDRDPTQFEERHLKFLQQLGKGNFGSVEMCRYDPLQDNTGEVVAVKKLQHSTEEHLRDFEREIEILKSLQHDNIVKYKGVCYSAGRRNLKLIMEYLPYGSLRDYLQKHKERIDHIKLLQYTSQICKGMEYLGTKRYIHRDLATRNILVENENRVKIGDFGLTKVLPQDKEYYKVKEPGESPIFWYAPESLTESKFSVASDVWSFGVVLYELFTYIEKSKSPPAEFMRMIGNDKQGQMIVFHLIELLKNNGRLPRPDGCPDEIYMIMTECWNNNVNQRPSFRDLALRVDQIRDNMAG

In the case of Cn1cc(-c2cc3nccn3c(-c3cnn(C4(CC#N)CN(CC(F)F)C4)c3)n2)cn1 [Example 69, 2-(1-(2,2-dDifluoroethyl)-3-(4-(7-(1-methyl-1H-pyrazol-4-yl)imidazo[1,2-c]pyrimidin-5-yl)-1H-pyrazol-1-yl)azetidin-3-yl)acetonitrile], the IC50 [1] is reported as under 10 nM, the IC50 [2] is reported as 100 to 1000 nM and the IC50 [3] is reported as 10 to 100 nM. It also gave an IC50 [4] of over 1000 nM.

In the case of Cn1cc(-c2cc3nccn3c(-c3ccn(C(CC#N)C4CC4)c3)n2)cn1 (centres unmarked) [Example 126, 3-Cyclopropyl-3-(3-(7-(1-methyl-1H-pyrazol-4-yl)imidazo[1,2-c]pyrimidin-5-yl)-1H-pyrrol-1-yl)propanenitrile], the IC50 [1] is reported as under 10 nM, the IC50 [2] is reported as 10 to 100 nM and the IC50 [3] is reported as 10 to 100 nM. It also gave an IC50 [4] of 100 to 1000 nM.

For Cn1cc(-c2cc3nccn3c(-c3cnn(C4(CC#N)CN(CC5CCC5)C4)c3)n2)cn1 [Example 87, 2-(1-(cyclobutylmethyl)-3-(4-(7-(1-methyl-1H-pyrazol-4-yl)imidazo[1,2-c]pyrimidin-5-yl)-1H-pyrazol-1-yl)azetidin-3-yl)acetonitrile], the IC50 [1] was 10 to 100 nM, the IC50 [2] was over 1000 nM and the IC50 [3] was 100 to 1000 nM. The IC50 [4] was over 1000 nM.

For N#CCC(C1CCCC1)n1cc(-c2nc(-c3ccc(N4CCOCC4)cc3)cc3nccn23)cn1 (centres unmarked) [Example 113, 3-Cyclopentyl-3-(4-(7-(4-morpholinophenyl)imidazo[1,2-c]pyrimidin-5-yl)-1H-pyrazol-1-yl)propanenitrile], the IC50 [1] was under 10 nM, the IC50 [2] was 10 to 100 nM and the IC50 [3] was 10 to 100 nM. For the same compound, the IC50 [4] was 100 to 1000 nM.

Work on N#CCC1(n2cc(-c3nc(-c4ccc(C(F)(F)F)cc4)cc4nccn34)cn2)CN(S(=O)(=O)C(F)(F)F)C1 [Example 146, 2-(3-(4-(7-(4-(trifluoromethyl)phenyl)imidazo[1,2-c]pyrimidin-5-yl)-1H-pyrazol-1-yl)-1-(trifluoromethylsulfonyl)azetidin-3-yl)acetonitrile] yielded an IC50 [1] of under 10 nM, an IC50 [2] of 10 to 100 nM and an IC50 [3] of 100 to 1000 nM. The IC50 [4] was over 1000 nM.

Cn1cc(-c2cc3nccn3c(-c3ccn(C4(CC#N)CN(CC(F)(F)F)C4)n3)n2)cn1 [Example 131, 2-(3-(3-(7-(1-Methyl-1H-pyrazol-4-yl)imidazo[1,2-c]pyrimidin-5-yl)-1H-pyrazol-1-yl)-1-(2,2,2-trifluoroethyl)azetidin-3-yl)acetonitrile] showed an IC50 [1] of 10 to 100 nM, an IC50 [2] of over 1000 nM and an IC50 [3] of 100 to 1000 nM. It also gave an IC50 [4] of over 1000 nM.

With N#CCC(C1CC1)n1cc(-c2nc(-c3cnc4n3CCNC4)cc3nccn23)cn1 (centres unmarked) [Example 56, 3-Cyclopropyl-3-(4-(7-(5,6,7,8-tetrahydroimidazo[1,2-a]pyrazin-3-yl)imidazo[1,2-c]pyrimidin-5-yl)-1H-pyrazol-1-yl)propanenitrile] the IC50 [1] was 100 to 1000 nM, the IC50 [2] was over 1000 nM and the IC50 [3] was 100 to 1000 nM. For the same compound, the IC50 [4] was over 1000 nM.

Compound Cn1cc(-c2cc3nccn3c(-c3cnn(C4(CC#N)CN(C5CC5)C4)c3)n2)cn1 [Example 66, 2-(1-Cyclopropyl-3-(4-(7-(1-methyl-1H-pyrazol-4-yl)imidazo[1,2-c]pyrimidin-5-yl)-1H-pyrazol-1-yl)azetidin-3-yl)acetonitrile] has an IC50 [1] of 10 to 100 nM, an IC50 [2] of 100 to 1000 nM and an IC50 [3] of 100 to 1000 nM. For the same compound, the IC50 [4] was over 1000 nM.

Cn1cc(-c2cc3nccn3c(-c3cnn(C4(CC#N)CCN(C(=O)OC(C)(C)C)CC4)c3)n2)cn1 [Example 21, tert-butyl 4-(cyanomethyl)-4-(4-(7-(1-methyl-1H-pyrazol-4-yl)imidazo[1,2-c]pyrimidin-5-yl)-1H-pyrazol-1-yl)piperidine-1-carboxylate] showed an IC50 [1] of 100 to 1000 nM, an IC50 [2] of over 1000 nM and an IC50 [3] of over 1000 nM. The IC50 [4] was over 1000 nM.

Compound Cn1cc(-c2cc3nccn3c(-c3cnn(C4(CC#N)CCN(CC(F)(F)F)CC4)c3)n2)cn1 [Example 31, 2-(4-(4-(7-(1-methyl-1H-pyrazol-4-yl)imidazo[1,2-c]pyrimidin-5-yl)-1H-pyrazol-1-yl)-1-(2,2,2-trifluoroethyl)piperidin-4-yl)acetonitrile] has an IC50 [1] of 10 to 100 nM, an IC50 [2] of 100 to 1000 nM and an IC50 [3] of 100 to 1000 nM. The IC50 [4] was over 1000 nM.

With Cn1cc(-c2cc3nccn3c(-c3cnn(C4(CC#N)CN(C5COC5)C4)c3)n2)cn1 [Example 67, 2-(3-(4-(7-(1-Methyl-1H-pyrazol-4-yl)imidazo[1,2-c]pyrimidin-5-yl)-1H-pyrazol-1-yl)-1-(oxetan-3-yl)azetidin-3-yl)acetonitrile] the IC50 [1] was 10 to 100 nM, the IC50 [2] was over 1000 nM and the IC50 [3] was 100 to 1000 nM. The IC50 [4] was over 1000 nM.

Cn1cc(-c2cc3nccn3c(-c3cnn(C4(CC#N)CN(S(=O)(=O)C5CCCCC5)C4)c3)n2)cn1 [Example 94, 2-(1-(cyclohexylsulfonyl)-3-(4-(7-(1-methyl-1H-pyrazol-4-yl)imidazo[1,2-c]pyrimidin-5-yl)-1H-pyrazol-1-yl)azetidin-3-yl)acctonitrile] gave an IC50 [1] of 10 to 100 nM, an IC50 [2] of over 1000 nM and an IC50 [3] of 100 to 1000 nM. The IC50 [4] was over 1000 nM.

For CC(CC#N)n1cc(-c2nc(-c3ccc(N4CCOCC4)cc3)cc3nccn23)cn1 (centres unmarked) [Example 118, 3-(4-(7-(4-morpholinophenyl)imidazo[1,2-c]pyrimidin-5-yl)-1H-pyrazol-1-yl)butanenitrile], the IC50 [1] was under 10 nM, the IC50 [2] was 10 to 100 nM and the IC50 [3] was 10 to 100 nM. The IC50 [4] was 100 to 1000 nM.

For Cn1cc(-c2cc3ncc(F)n3c(-c3cnn(C(CC#N)C4CC4)c3)n2)cn1 (centres unmarked) [Example 152, 3-cyclopropyl-3-(4-(3-fluoro-7-(1-methyl-1H-pyrazol-4-yl)imidazo[1,2-c]pyrimidin-5-yl)-1H-pyrazol-1-yl)propanenitrile], the IC50 [1] was under 10 nM, the IC50 [2] was 100 to 1000 nM and the IC50 [3] was 10 to 100 nM. It also gave an IC50 [4] of 100 to 1000 nM.

Cn1cc(-c2cc3nccn3c(-c3cnn(C(CC#N)c4ccccc4)c3)n2)cn1 (centres unmarked) [Example 11, 3-(4-(7-(1-methyl-1H-pyrazol-4-yl)imidazo[1,2-c]pyrimidin-5-yl)-1H-pyrazol-1-yl)-3-phenylpropanenitrile] showed an IC50 [1] of under 10 nM, an IC50 [2] of 10 to 100 nM and an IC50 [3] of 10 to 100 nM. The IC50 [4] was 100 to 1000 nM.

In the case of CC(C)Cn1cc(-c2cc3nccn3c(-c3cnn(C(CC#N)C4CC4)c3)n2)cn1 (centres unmarked) [Example 37, 3-cyclopropyl-3-(4-(7-(1-isobutyl-1H-pyrazol-4-yl)imidazo[1,2-c]pyrimidin-5-yl)-1H-pyrazol-1-yl)propanenitrile], the IC50 [1] is reported as 10 to 100 nM, the IC50 [2] is reported as 100 to 1000 nM and the IC50 [3] is reported as 10 to 100 nM. It also gave an IC50 [4] of over 1000 nM.

Cn1cc(-c2cc3nccn3c(-c3cnn(C4(CC#N)CN(CCC#N)C4)c3)n2)cn1 [Example 78, 3-(3-(cyanomethyl)-3-(4-(7-(1-methyl-1H-pyrazol-4-yl)imidazo[1,2-c]pyrimidin-5-yl)-1H-pyrazol-1-yl)azetidin-1-yl)propanenitrile] showed an IC50 [1] of 10 to 100 nM, an IC50 [2] of 100 to 1000 nM and an IC50 [3] of 100 to 1000 nM. For the same compound, the IC50 [4] was over 1000 nM.
